Data published in ChEMBL document CHEMBL1201862, “PubChem BioAssay data set” (2004).
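1) Cells in 96-well plates. 2) Compound, 48 h, 5 concentrations. 3) Linear interpolation between surrounding doses. 4) Unreached endpoint = highest concentration. Abbreviation: GI50, concentration required for 50% inhibition of growth.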 Active and inactive are the calls of the source. Rule as the data show it: active = GI50 up to about 1.1 µM and inactive = higher.

Columns and labels:
Experiment in all cases: NCI tumour cell line growth inhibition, 48 h
786-0 = tested on: 786-0
A549 = tested on: A549
ACHN = tested on: ACHN
CCRF-CEM = tested on: CCRF-CEM
COLO 205 = tested on: COLO 205
DMS-114 = tested on: DMS-114
DMS-273 = tested on: DMS-273
EKVX = tested on: EKVX
HCT-116 = tested on: HCT-116
HCT-15 = tested on: HCT-15
HL-60 = tested on: HL-60
HOP-18 = tested on: HOP-18
HOP-62 = tested on: HOP-62
HT-29 = tested on: HT-29
K562 = tested on: K562
KM-20L2 = tested on: KM-20L2
KM12 = tested on: KM12
LOX IMVI = tested on: LOX IMVI
LXFL 529 = tested on: LXFL 529
M14 = tested on: M14
M19-MEL = tested on: M19-MEL
MOLT-4 = tested on: MOLT-4
Malme-3M = tested on: Malme-3M
NCI-H226 = tested on: NCI-H226
NCI-H23 = tested on: NCI-H23
NCI-H460 = tested on: NCI-H460
NCI-H522 = tested on: NCI-H522
OVCAR-4 = tested on: OVCAR-4
OVCAR-8 = tested on: OVCAR-8
RPMI-8226 = tested on: RPMI-8226
RXF 393 = tested on: RXF 393
SF-268 = tested on: SF-268
SF-295 = tested on: SF-295
SK-MEL-28 = tested on: SK-MEL-28
SK-MEL-2 = tested on: SK-MEL-2
SK-MEL-5 = tested on: SK-MEL-5
SK-OV-3 = tested on: SK-OV-3
SN12C = tested on: SN12C
SNB-19 = tested on: SNB-19
SNB-75 = tested on: SNB-75
SNB-78 = tested on: SNB-78
SR = tested on: SR
SW-620 = tested on: SW-620
TK-10 = tested on: TK-10
U-251 = tested on: U-251
UACC-257 = tested on: UACC-257
UACC-62 = tested on: UACC-62
UO-31 = tested on: UO-31
XF498 = tested on: XF498
A498 = tested on: A498
BT-549 = tested on: BT-549
CAKI-1 = tested on: CAKI-1
DLD-1 = tested on: DLD-1
DU-145 = tested on: DU-145
HOP-92 = tested on: HOP-92
IGROV-1 = tested on: IGROV-1
MCF7 = tested on: MCF7
MDA-MB-231 = tested on: MDA-MB-231
MDA-MB-435 = tested on: MDA-MB-435
MDA-N = tested on: MDA-N
NCI/ADR-RES = tested on: NCI/ADR-RES
OVCAR-3 = tested on: OVCAR-3
OVCAR-5 = tested on: OVCAR-5
PC-3 = tested on: PC-3
SF-539 = tested on: SF-539
T47D = tested on: T47D
HCC 2998 = tested on: HCC 2998
RXF 631 = tested on: RXF 631

In the case of `CC(C)NC1CCCCC2c3ccccc3C12O` (centres undefined), the GI50 (786-0) is reported as > 100 µM (inactive), the GI50 (A549) is reported as > 100 µM (inactive) and the GI50 (ACHN) is reported as > 100 µM (inactive). For the same compound, the GI50 (CCRF-CEM) was > 100 µM (inactive), the GI50 (COLO 205) was > 100 µM (inactive) and the GI50 (DMS-114) was > 100 µM (inactive). For the same compound, the GI50 (DMS-273) was > 100 µM (inactive), the GI50 (EKVX) was > 100 µM (inactive) and the GI50 (HCT-116) was > 100 µM (inactive). For the same compound, the GI50 (HCT-15) was greater than 100 µM, the GI50 (HL-60) was > 100 µM (inactive) and the GI50 (HOP-18) was > 100 µM (inactive). For the same compound, the GI50 (HOP-62) was > 100 µM (inactive), the GI50 (HT-29) was > 100 µM (inactive) and the GI50 (K562) was > 100 µM (inactive). The GI50 (KM-20L2) was > 100 µM (inactive), the GI50 (KM12) was > 100 µM (inactive) and the GI50 (LOX IMVI) was > 100 µM (inactive). The GI50 (LXFL 529) was > 100 µM (inactive), the GI50 (M14) was > 100 µM (inactive) and the GI50 (M19-MEL) was > 100 µM (inactive). For the same compound, the GI50 (MOLT-4) was > 100 µM (inactive), the GI50 (Malme-3M) was > 100 µM (inactive) and the GI50 (NCI-H226) was > 100 µM (inactive). The GI50 (NCI-H23) was > 100 µM (inactive), the GI50 (NCI-H460) was > 100 µM (inactive) and the GI50 (NCI-H522) was > 100 µM (inactive). The GI50 (OVCAR-4) was > 100 µM (inactive), the GI50 (OVCAR-8) was > 100 µM (inactive) and the GI50 (RPMI-8226) was > 100 µM (inactive). For the same compound, the GI50 (RXF 393) was > 100 µM (inactive), the GI50 (SF-268) was > 100 µM (inactive) and the GI50 (SF-295) was > 100 µM (inactive). The GI50 (SK-MEL-28) was > 100 µM (inactive), the GI50 (SK-MEL-2) was > 100 µM (inactive) and the GI50 (SK-MEL-5) was > 100 µM (inactive). The GI50 (SK-OV-3) was > 100 µM (inactive), the GI50 (SN12C) was > 100 µM (inactive) and the GI50 (SNB-19) was > 100 µM (inactive). The GI50 (SNB-75) was > 100 µM (inactive), the GI50 (SNB-78) was > 100 µM (inactive) and the GI50 (SR) was > 100 µM (inactive). For the same compound, the GI50 (SW-620) was > 100 µM (inactive), the GI50 (TK-10) was > 100 µM (inactive) and the GI50 (U-251) was > 100 µM (inactive). For the same compound, the GI50 (UACC-257) was > 100 µM (inactive), the GI50 (UACC-62) was > 100 µM (inactive) and the GI50 (UO-31) was > 100 µM (inactive). The GI50 (XF498) was > 100 µM (inactive).

For `COc1ccc(/C=C2/C(=O)N(C(=O)c3ccccc3O)N=C2C)cc1`, the GI50 (786-0) was 0.598 µM (active), the GI50 (A498) was 0.0202 µM (active) and the GI50 (A549) was 0.175 µM (active). The GI50 (ACHN) was 0.0418 µM (active), the GI50 (BT-549) was 0.105 µM (active) and the GI50 (CAKI-1) was 0.0962 µM (active). For the same compound, the GI50 (CCRF-CEM) was 0.124 µM (active), the GI50 (COLO 205) was 18.2 µM (inactive) and the GI50 (DLD-1) was 0.0828 µM (active). For the same compound, the GI50 (DMS-114) was 0.117 µM (active), the GI50 (DU-145) was 0.192 µM (active) and the GI50 (EKVX) was 0.608 µM (active). The GI50 (HCT-116) was 0.091 µM (active), the GI50 (HCT-15) was 0.263 µM and the GI50 (HL-60) was 0.292 µM (active). The GI50 (HOP-62) was 0.356 µM (active), the GI50 (HOP-92) was 0.0441 µM (active) and the GI50 (HT-29) was 4.57 µM (inactive). For the same compound, the GI50 (IGROV-1) was 0.0234 µM (active), the GI50 (K562) was 0.0492 µM (active) and the GI50 (KM-20L2) was 16.5 µM (inactive). The GI50 (LOX IMVI) was 0.28 µM (active), the GI50 (LXFL 529) was 0.205 µM (active) and the GI50 (M14) was 16.4 µM (inactive). The GI50 (M19-MEL) was 0.542 µM (active), the GI50 (MCF7) was 0.617 µM (active) and the GI50 (MDA-MB-231) was 0.126 µM (active). For the same compound, the GI50 (MDA-MB-435) was 0.05 µM (active), the GI50 (MDA-N) was 0.125 µM (active) and the GI50 (MOLT-4) was 0.244 µM (active). The GI50 (NCI-H226) was 1.35 µM (inactive), the GI50 (NCI-H23) was 0.114 µM (active) and the GI50 (NCI-H460) was 0.262 µM (active). The GI50 (NCI-H522) was 0.356 µM (active), the GI50 (NCI/ADR-RES) was 0.984 µM (active) and the GI50 (OVCAR-3) was 0.338 µM (active). The GI50 (OVCAR-4) was 0.655 µM (active), the GI50 (OVCAR-5) was 11.2 µM (inactive) and the GI50 (OVCAR-8) was 0.238 µM (active). The GI50 (PC-3) was 0.535 µM (active), the GI50 (RPMI-8226) was 0.895 µM (active) and the GI50 (RXF 393) was < 0.0446 µM (active). The GI50 (SF-268) was 0.202 µM (active), the GI50 (SF-295) was 0.0946 µM (active) and the GI50 (SF-539) was 0.109 µM (active). The GI50 (SK-MEL-28) was 9.4 µM (inactive), the GI50 (SK-MEL-2) was 0.327 µM (active) and the GI50 (SK-MEL-5) was 0.218 µM (active). For the same compound, the GI50 (SK-OV-3) was 0.0789 µM (active), the GI50 (SN12C) was 0.65 µM (active) and the GI50 (SNB-19) was 0.0484 µM (active). For the same compound, the GI50 (SNB-78) was 0.033 µM (active), the GI50 (SR) was 0.232 µM (active) and the GI50 (SW-620) was 1.44 µM (inactive). The GI50 (T47D) was 4.32 µM (inactive), the GI50 (TK-10) was 6.04 µM (inactive) and the GI50 (U-251) was 0.0692 µM (active). The GI50 (UACC-257) was 0.442 µM (active), the GI50 (UACC-62) was 0.0968 µM (active) and the GI50 (UO-31) was 0.0445 µM (active). The GI50 (XF498) was 0.3 µM (active).

With `CCCCC[C@@H]1CCCC2NC(CCCCCO[Si](c3ccccc3)(c3ccccc3)C(C)(C)C)CCC21` (some centres undefined) the GI50 (786-0) was 18.1 µM (inactive), the GI50 (A498) was 17.3 µM (inactive) and the GI50 (A549) was 17.5 µM (inactive). For the same compound, the GI50 (ACHN) was 13.5 µM (inactive), the GI50 (CAKI-1) was 15.4 µM (inactive) and the GI50 (CCRF-CEM) was 7.82 µM (inactive). The GI50 (DLD-1) was 13.2 µM (inactive), the GI50 (DMS-114) was 13 µM (inactive) and the GI50 (DMS-273) was 16.8 µM (inactive). For the same compound, the GI50 (EKVX) was 17.3 µM (inactive), the GI50 (HCC 2998) was 11.2 µM (inactive) and the GI50 (HCT-116) was 11.5 µM (inactive). The GI50 (HCT-15) was 11.7 µM, the GI50 (HL-60) was 8.71 µM (inactive) and the GI50 (HOP-62) was 17.9 µM (inactive). For the same compound, the GI50 (HOP-92) was 10.1 µM (inactive), the GI50 (HT-29) was 4.28 µM (inactive) and the GI50 (IGROV-1) was 16.9 µM (inactive). For the same compound, the GI50 (K562) was 5.25 µM (inactive), the GI50 (KM-20L2) was 10.6 µM (inactive) and the GI50 (KM12) was 12.5 µM (inactive). The GI50 (LOX IMVI) was 12.2 µM (inactive), the GI50 (M14) was 14.1 µM (inactive) and the GI50 (M19-MEL) was 17.3 µM (inactive). The GI50 (MOLT-4) was 12.6 µM (inactive), the GI50 (Malme-3M) was 19.1 µM (inactive) and the GI50 (NCI-H226) was 18.7 µM (inactive). The GI50 (NCI-H23) was 15.7 µM (inactive), the GI50 (NCI-H460) was 16.2 µM (inactive) and the GI50 (NCI-H522) was 15 µM (inactive). For the same compound, the GI50 (OVCAR-3) was 16.6 µM (inactive), the GI50 (OVCAR-4) was 8.67 µM (inactive) and the GI50 (OVCAR-5) was 20.1 µM (inactive). For the same compound, the GI50 (OVCAR-8) was 17.1 µM (inactive), the GI50 (RPMI-8226) was 5.31 µM (inactive) and the GI50 (RXF 393) was 11.3 µM (inactive). The GI50 (RXF 631) was 11.5 µM (inactive), the GI50 (SF-268) was 17.9 µM (inactive) and the GI50 (SF-295) was 16.9 µM (inactive). The GI50 (SF-539) was 15.2 µM (inactive), the GI50 (SK-MEL-28) was 17.1 µM (inactive) and the GI50 (SK-MEL-2) was 15.1 µM (inactive). The GI50 (SK-MEL-5) was 18.4 µM (inactive), the GI50 (SK-OV-3) was 21.8 µM (inactive) and the GI50 (SN12C) was 14.7 µM (inactive). For the same compound, the GI50 (SNB-19) was 17.3 µM (inactive), the GI50 (SNB-75) was 16 µM (inactive) and the GI50 (SNB-78) was 15.1 µM (inactive). For the same compound, the GI50 (SW-620) was 14.6 µM (inactive), the GI50 (TK-10) was 18.7 µM (inactive) and the GI50 (U-251) was 14.1 µM (inactive). For the same compound, the GI50 (UACC-257) was 15.2 µM (inactive), the GI50 (UACC-62) was 19.5 µM (inactive) and the GI50 (UO-31) was 13.4 µM (inactive).
